Test results published in patent US4873088A, “Liposome drug delivery method and composition” (priority 1987, dated 1989).

Tests used:
[1] = both compounds in the free form; cited from earlier work
[2] = PEC ADM content by fluorescence after i.p. administration; assay type: in vivo, mice
Experimental: ADM was extracted from 10^6 PEC/sample by sonication in 36.5% HCl: absolute ethanol (1:11) in an ice bath for 5 min. This sonicated lysate was centrifuged (12,150×g) for 20 min at 4-6 C. The supernatant was measured for fluorescence at 468 nm excitation and 585 nm emission using a Perkin-Elmer (Model 650-10S) spectrofluorometer.

YAC-1 lymphoma cells [3] = experiment: Splenic NK activity against YAC-1 cells (51Cr release); assay type: cell-based, mice
Experimental: Fresh spleen cells were added to ^51 Cr labeled YAC-1 cells at different effector to target cell ratios.

[4] = Acute and chronic toxicity (LD50) after single i.v. dose in healthy mice; conditions: mouse, in vivo, iv
Experimental: The toxicity of the three ADM preparations in Table 1 above was tested against healthy DMA 2J mice.
The data are expressed in terms of LD50, i.e. the dosage (in mg drug per kilogram of animal body weight) which produces death in half the animals receiving the drug. […] The number of mice available for determination of chronic toxicity (survival of acute toxicity) varied from between about 2 and 10 mice per group.

L1210 leukemia cells = experiment: Acute therapeutic effect (mean survival time) in mice injected i.p. with 10^6 L1210 leukemia cells, i.v. ADM; assay type: in vivo, DBA 2J mice; conditions: one day after L1210
Experimental: The day of death of the animals was recorded, and the mean survival time of each group was calculated. Each group contained from between 6 and 10 mice.

YAC-1 lymphoma cells [5] = experiment: PEC NK activity with and without anti-Asialo GM1 antibody + complement; assay type: cell-based, mice; conditions: PEC 7 days after treatment; for NK activity, specific 51Cr release, Untreated: no antibody
Experimental: In order to verify that the effector cells in the PEC population that were active against YAC-1 cells had.NK properties, PECs were treated with anti-Asialo GMI antiserum and complement in vitro prior to the 4 hr toxicity assay for PECs.
Anti-Asialo GM1 antibody was added directly to PEC in the microwells at a final dilution of 1:20. After 30 min on ice the cultured effector cells were spun down, supernatant removed and the cells resuspended. Low toxicity rabbit complement was added (final dilution 1:20) and the cultures incubated for 45 min. After 3 washings, the PECs (5×10^5) were cultures with 10^4 radio-labeled YAC-1 cells, and radioactivity released was assayed after 4 hours.

IL-1 = IL-1 like activity of adherent PEC culture supernatants (thymocyte comitogenic assay); assay type: cell-based, C3H/Hej mice
Experimental: (§1) The cells were cultured for 18 hours with the concentrations of LPS indicated below in Table 4.
A standard thymocyte comitogenic assay for IL-1 was used to test 18 h adherent PEC culture supernatants for IL1 like activity. Thymopytes (5×10^5) from C3H/Hej mice were added in 0.1 ml/well to flat bottom, 96 well plates. An equal volume of adherent PEC culture supernatant was added for a final volume of 0.2 ml. To facilitate a proliferative response, the media was supplemented with PHA ([…]) and 2-mercaptoethanol ([…]). Cultures were incubated for 72 h. Four hours before harvesting, the cultures were pulsed with [^3 H]dThd (New England Nuclear, 2 Ci/mole; […]).
Cells were harvested on glass fiber filters with an Otto Hiller cell harvester. The radioactivity was measured by scintillation counting using a Beckmann counter (Model LS 7000). Thymidine uptake by the thymocytes was expressed as mean cpm±S.D.

IL-2 = IL-2 activity of adherent PEC culture supernatants (IL-2 dependent CTCL-1 line); assay type: cell-based
Experimental: The purpose is to determine if the enhanced macrophage tumoricidal activity and NK activity detailed above correlates with increases in either IL-1 or IL-2.
as §1
The procedure used for assaying IL-2 has been described (Ehrke, 1986). Briefly, using a long term, IL-2 dependent cytolytic T cell line (CTCL-1), 10^4 cells in 0.1 ml were added to 0.1 ml volumes of conditioned media from adherent PEC cultures. The cells were incubated for 24 h and pulsed with [^3 H]Thd ([…]) 4 h before harvest. Results were expressed as the arithmetic mean of cpm dThd uptake ±S.D. A semipurified, rat IL-2 preparation was used as a positive control.

Cc1c(C)c2c(c(C)c1O)CCC(C)(CCCC(C)CCCC(C)CCCC(C)C)O2 (stereo not drawn) [alpha-tocopherol (vitamin E), alpha-tocopherol]
cardiotoxicity of ADM (in words) [1]: reduce the cardiotoxicity of ADM in animals

COc1cccc2c1C(=O)c1c(O)c3c(c(O)c1C2=O)C[C@@](O)(C(=O)CO)C[C@@H]3O[C@H]1C[C@H](N)[C@H](O)[C@H](C)O1 [free ADM, doxorubicin]
ADM Equivalents in PEC ([2]; Day 4, i.p.): 4.2 ± 0.5 ng ADM/10^6 PECs
ADM Equivalents in PEC ([2]; Day 7, i.p.): 1.4 ± 0.4 ng ADM/10^6 PECs
ADM Equivalents in PEC ([2]; Day 11, i.p.): 0.2 ± 0.2 ng ADM/10^6 PECs
duration of suppression of splenic NK (in words) (YAC-1 lymphoma cells [3]): transient
splenic NK suppression (in words) (YAC-1 lymphoma cells [3]; 7 or 11 days before sacrifice): suppression was not observed
splenic NK activity (in words) (YAC-1 lymphoma cells [3]; 4 days following treatment): reduced
LD50 at 2880 h ([4]; death between 50 and 120 days, read-out: Mean LD50 ± S.D., chronic): 12 ± 5 mg/kg
LD50 at 336 h ([4]; death within 14 days, read-out: Mean LD50 ± S.D., acute): 20 ± 5 mg/kg
Mean Survival Time ± S.D. (L1210 leukemia cells; 10 mg/kg ADM): 18.4 ± 1.8 days
Mean Survival Time ± S.D. (L1210 leukemia cells; 20 mg/kg ADM): 12.2 ± 1.6 days
NK activity, specific 51Cr release, Asialo GM1 Antibody + Complement (YAC-1 lymphoma cells [5]; Exp. No. 1): 3.4 ± 0.9%
NK activity, specific 51Cr release, Untreated (YAC-1 lymphoma cells [5]; Exp. No. 1): 16.9 ± 2.6%
NK activity, specific 51Cr release, Asialo GM1 Antibody + Complement (YAC-1 lymphoma cells [5]; Exp. No. 2): 0.2 ± 0.8%
NK activity, specific 51Cr release, Untreated (YAC-1 lymphoma cells [5]; Exp. No. 2): 18.9 ± 1.4%
IL-1 activity (thymidine uptake by thymocytes) (IL-1; LPS 0 ng/ml): 9142 ± 1179 cpm
IL-1 activity (thymidine uptake by thymocytes) (IL-1; LPS 0.001 ng/ml): 9693 ± 230 cpm
IL-1 activity (thymidine uptake by thymocytes) (IL-1; LPS 0.1 ng/ml): 11588 ± 953 cpm
dependence of IL-1-like activity on LPS (in words) (IL-1; LPS 0.001 to 1,000 ng/ml): no significant increase in this activity from ADM PEC was observed with LPS exposure
IL-2 activity (dThd uptake) (IL-2; LPS 0 ng/ml): 285 ± 86 cpm
IL-2 activity (dThd uptake) (IL-2; LPS 0.001-1000 ng/ml): 286 ± 74 cpm
IL-2 activity (in words) (IL-2; with or without LPS activation): about background
